Test results published in US7754654B2, “Substituted spirocyclic ketoenols” (Bayer CropScience AG, priority 2002, dated 2010).

Tests used:
Format in all cases: in vivo
[1] = test system: larvae of the mustard beetle (Phaedon cochleariae); experiment: Phaedon larvae test (cabbage leaf dip); conditions: 1000 ppm
Experimental: To produce a suitable preparation of active compound, 1 part by weight of active compound is mixed with the stated amounts of solvent and emulsifier, and the concentrate is diluted with emulsifier-containing water to the desired concentration. Cabbage leaves (Brassica oleracea) are treated by being dipped into the preparation of active compound of the desired concentration and are populated with larvae of the mustard beetle (Phaedon cochleariae) while the leaves are still moist. After the desired period of time, the kill in % is determined. 100% means that all beetle larvae have been killed; 0% means that none of the beetle larvae have been killed.

Alopecurus [2] = experiment: Pre-emergence test; conditions: 250 g of ai/ha, after three weeks
Experimental: (§1) To produce a suitable preparation of active compound, 1 part by weight of active compound is mixed with the stated amount of solvent, the stated amount of emulsifier is added and the concentrate is diluted with water to the desired concentration. Seeds of the test plants are sown in normal soil. After about 24 hours, the soil is sprayed with the preparation of active compound such that the particular amounts of active compound desired are applied per unit area. The concentration of the spray liquor is chosen such that the particular amounts of active compound desired are applied in 1000 l of water/ha. After three weeks, the degree of damage to the plants is rated in % damage in comparison to the development of the untreated control. The figures denote: • 0%=no effect (like untreated control) • 100%=total destruction

Amaranthus [3] = experiment: Pre-emergence test; conditions: 250 g of ai/ha, after three weeks
Experimental: as §1

Sugar beet [4] = experiment: Pre-emergence test; conditions: 250 g of ai/ha, after three weeks
Experimental: as §1

Avena fatua = experiment: Pre-emergence test; conditions: 250 g of ai/ha, after three weeks
Experimental: as §1

Echinochloa = experiment: Pre-emergence test; conditions: 250 g of ai/ha, after three weeks
Experimental: as §1

Sinapis [5] = experiment: Pre-emergence test; conditions: 250 g of ai/ha, after three weeks
Experimental: as §1

Setaria [6] = experiment: Pre-emergence test; conditions: 250 g of ai/ha, after three weeks
Experimental: as §1

Alopecurus [7] = experiment: Post-emergence test; conditions: 250 g of ai/ha, after three weeks
Experimental: as §1, with “Test plants” for “Seeds”, “a height of 5-15 cm” for “the test plants”, “are” for “are sown in normal soil. After about 24 hours, the soil is”

Abutilon = experiment: Post-emergence test; conditions: 250 g of ai/ha, after three weeks
Experimental: as §1, with “Test plants” for “Seeds”, “a height of 5-15 cm” for “the test plants”, “are” for “are sown in normal soil. After about 24 hours, the soil is”

Amaranthus [8] = experiment: Post-emergence test; conditions: 250 g of ai/ha, after three weeks
Experimental: as §1, with “Test plants” for “Seeds”, “a height of 5-15 cm” for “the test plants”, “are” for “are sown in normal soil. After about 24 hours, the soil is”

Sinapis [9] = experiment: Post-emergence test; conditions: 250 g of ai/ha, after three weeks
Experimental: as §1, with “Test plants” for “Seeds”, “a height of 5-15 cm” for “the test plants”, “are” for “are sown in normal soil. After about 24 hours, the soil is”

Galium = experiment: Post-emergence test; conditions: 250 g of ai/ha, after three weeks
Experimental: as §1, with “Test plants” for “Seeds”, “a height of 5-15 cm” for “the test plants”, “are” for “are sown in normal soil. After about 24 hours, the soil is”

Sugar beet [10] = experiment: Post-emergence test; conditions: 250 g of ai/ha, after three weeks
Experimental: as §1, with “Test plants” for “Seeds”, “a height of 5-15 cm” for “the test plants”, “are” for “are sown in normal soil. After about 24 hours, the soil is”

Cyperus = experiment: Post-emergence test; conditions: 250 g of ai/ha, after three weeks
Experimental: as §1, with “Test plants” for “Seeds”, “a height of 5-15 cm” for “the test plants”, “are” for “are sown in normal soil. After about 24 hours, the soil is”

Setaria [11] = experiment: Post-emergence test; conditions: 250 g of ai/ha, after three weeks
Experimental: as §1, with “Test plants” for “Seeds”, “a height of 5-15 cm” for “the test plants”, “are” for “are sown in normal soil. After about 24 hours, the soil is”

Structure (SMILES): Cc1cc(C)c(C2=C(O)C3(CCC(OCC4CCCO4)CC3)NC2=O)c(C)c1 (single isomer, unassigned) [Ex. I-1-a-7]
- Kill rate in % after 7d [1]: 100%
- % damage (Alopecurus [2]): 80%
- % damage (Amaranthus [3]): 95%
- % damage (Sugar beet [4]): 0%
- % damage (Avena fatua): 95%
- % damage (Echinochloa): 99%
- % damage (Sinapis [5]): 90%
- % damage (Setaria [6]): 100%

Structure (SMILES): Cc1cc(C)c(C2=C(O)C3(CCC(OCc4ccc(Cl)cc4)CC3)NC2=O)c(C)c1 (single isomer, unassigned) [Ex. I-1-a-27]
- % damage (Alopecurus [7]): 90%
- % damage (Abutilon): 80%
- % damage (Amaranthus [8]): 90%
- % damage (Sinapis [9]): 80%
- % damage (Galium): 70%

Structure (SMILES): Cc1cc(C)c(C2=C(OC(=O)C(C)C)C3(CCC(OCc4ccccc4)CC3)NC2=O)c(C)c1 (single isomer, unassigned) [Ex. I-1-b-2]
- % damage (Alopecurus [7]): 80%
- % damage (Sugar beet [10]): 0%
- % damage (Cyperus): 80%
- % damage (Sinapis [9]): 70%
- % damage (Setaria [11]): 95%
